Measured values reported in patent publication US4450269A, “Mono-5-substituted-3-chloro-4H-1,2,6-thiadiazin-4-one antifungal agents” (FMC Corporation, priority 1980, dated 1984).

Columns and labels:
Experiment in all cases: Spore germination test
Format in all cases: cell-based
Botrytis cinerea = conditions: BC, 48 hours
In short: (§1)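 Compound in acetone was mixed into water agar at final 40, 10, 2.5 and 1 ppm and poured into quadrant dishes. Quadrants received spore suspension, while Erysiphe polygoni and Uromyces phaseoli spores were brushed on from infected leaves. After 48 h at 24 °C, the percentage of germinated spores was converted to a germination rating.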

Erysiphe polygoni = conditions: EP, 48 hours
In short: as §1

Uromyces phaseoli = conditions: UP, 48 hours
In short: as §1

SMILES | Spore Germination Rating (Botrytis cinerea; 1.0 ppm) | Spore Germination Rating (Botrytis cinerea; 2.5 ppm) | Spore Germination Rating (Botrytis cinerea; 10 ppm) | Spore Germination Rating (Botrytis cinerea; 40 ppm) | Spore Germination Rating (Erysiphe polygoni; 1.0 ppm) | Spore Germination Rating (Erysiphe polygoni; 2.5 ppm) | Spore Germination Rating (Erysiphe polygoni; 10 ppm) | Spore Germination Rating (Erysiphe polygoni; 40 ppm) | Spore Germination Rating (Uromyces phaseoli; 1.0 ppm) | Spore Germination Rating (Uromyces phaseoli; 2.5 ppm) | Spore Germination Rating (Uromyces phaseoli; 10 ppm) | Spore Germination Rating (Uromyces phaseoli; 40 ppm)
O=c1c(Cl)nsnc1Oc1ccc(Cl)cc1Cl [Compound 17, 3-chloro-5-(2,4-dichlorophenoxy)-4H--1,2,6-thiadiazin-4-one] | 4 (80-100) | 0 (0-10) | 0 (0-10) | 0 (0-10) | 3 (60-80) | 1 (10-40) | 0 (0-10) | 0 (0-10) | 0 (0-10) | 0 (0-10) | 0 (0-10) | 0 (0-10)
O=c1c(Cl)nsnc1Oc1c(Cl)cc(Cl)cc1Cl [Compound 30, 3-chloro-5-(2,4,6-trichlorophenoxy)-4H--1,2,6-thiadiazin-4-one] | 0 (0-10) | 0 (0-10) | 0 (0-10) | 0 (0-10) | 1 (10-40) | 0 (0-10) | 0 (0-10) | 0 (0-10) | 0 (0-10) | 0 (0-10) | 0 (0-10) | 0 (0-10)
CS(=O)(=O)c1ccc(Oc2nsnc(Cl)c2=O)cc1 [Compound 41, 3-chloro-5-[(4-methylsulfonyl)phenoxy]-4H--1,2,6-thiadiazin-4-one] | 0 (0-10) | 0 (0-10) | 4 (80-100) | 3 (60-80) | 2 (40-60) | 2 (40-60) | 1 (10-40) | 0 (0-10) | 4 (80-100) | 1 (10-40) | 0 (0-10) | 0 (0-10)
COc1ccc(Oc2nsnc(Cl)c2=O)cc1 [Compound 5, 3-chloro-5-(4-methoxyphenoxy)4H--1,2,6-thiadiazin-4-one] | 4 (80-100) | 4 (80-100) | 1 (10-40) | 0 (0-10) | 4 (80-100) | 4 (80-100) | 4 (80-100) | 0 (0-10) | 1 (10-40) | 1 (10-40) | 0 (0-10) | 0 (0-10)
Cc1ccc(Cl)c(Oc2nsnc(Cl)c2=O)c1 [Compound 56, 3-chloro-5-[(2-chloro-5-methyl)phenoxy]-4H--1,2,6-thiadiazin-4-one] | 4 (80-100) | 0 (0-10) | 0 (0-10) | 0 (0-10) | 4 (80-100) | 2 (40-60) | 0 (0-10) | 0 (0-10) | 1 (10-40) | 0 (0-10) | 0 (0-10) | 0 (0-10)
N#CCc1ccc(Oc2nsnc(Cl)c2=O)cc1 [Compound 46, 3-chloro-5-[(4-cyanomethyl)-phenoxy]4H--1,2,6-thiadiazin-4-one] | 4 (80-100) | 3 (60-80) | 3 (60-80) | 0 (0-10) | 4 (80-100) | 4 (80-100) | 4 (80-100) | 4 (80-100) | 1 (10-40) | 0 (0-10) | 0 (0-10) | 0 (0-10)
O=C(Nc1ccccc1)Oc1ccc(Oc2nsnc(Cl)c2=O)cc1 [Compound 37, 3-chloro-5-[4-(phenylaminocarbonyloxy)phenoxy]-4H-1,2,6,-thiadiazin-4-one] | 4 (80-100) | 4 (80-100) | 4 (80-100) | 4 (80-100) | 4 (80-100) | 4 (80-100) | 4 (80-100) | 3 (60-80) | 4 (80-100) | 2 (40-60) | 1 (10-40) | 1 (10-40)
